Experiment [1] concerns patient and control fibroblasts. Put plainly: 13C6-fructose incubation of fibroblasts, polyol and hexose pools. The conditions noted are these: 0.15 mM 13C6-fructose, 5.5 mM glucose. Format: cell-based, human. As to the method:
Next, the influence of dietary fructose on the urine polyol levels in PMM2-CDG was evaluated. Fructose has become one of the major sources of energy in the western diet and has been associated with numerous disorders such as diabetes, hypertension, obesity, etc. Peripheral fasting fructose levels range between 0.01-0.07 mM and can increase by 5-fold after consumption of a fructose rich meal. […] The possibility of fructose contributing to the polyols increase seen in PMM2-CDG was therefore tested. First, a fructose tolerance test in individuals with PMM2-CDG (P5) was performed. […] Then, to investigate the contribution of fructose in intracellular polyol accumulation, patient and control fibroblasts were incubated in the presence of 5.5 mM glucose and 0.15 mM (average blood fructose concentration upon fructose rich meal)^13C6-fructose and medium containing dialyzed FBS (FIG. 2A).

The next experiment relates to PMM2-CDG patient (P5). Put plainly: Fructose tolerance test, urine polyols. Format: in vivo, human. The conditions noted are these: P5, fasting, 1 g/kg oral fructose. As to the method: Fructose tolerance test was performed in P5 according to the standard clinical protocol at fasting state with 1 g/kg oral fructose, and the first voided urine was collected.

Turning to `OCC1(O)OC[C@@H](O)[C@@H](O)[C@@H]1O` (some centres unmarked) [^13C6-fructose], in experiment [1] (PMM2-CDG and controls), the “Fractional Contribution (FC) in total hexose pool” value is 4%. In experiment [1] (dialyzed FBS), the hexose pool abundance entry is listed as “increase” and the polyol pool abundance result was “increase”.

Regarding `O=C(CO)[C@@H](O)[C@H](O)[C@H](O)CO` [fructose], in the experiment on PMM2-CDG patient (P5), the “fold increase of urine mannitol after fructose tolerance test” value was 3 times and the “fold increase of urine sorbitol after fructose tolerance test” value is reported as “approximately 7 times”.

The record behind these values is patent publication US20260335294A1, “TREATING CONGENITAL DISORDERS OF GLYCOSYLATION” (Mayo Foundation for Medical Education and Research, priority 2022, published 2026).
